In US9394260B2, “Pyrimidinone carboxamide inhibitors of endothelial lipase” (BRISTOL-MYERS SQUIBB COMPANY, priority 2012, dated 2016):

target: T1, endothelial lipase (EL) (Homo sapiens, UniProt Q9Y5X9); assay: Endothelial lipase (EL) enzymatic assay with fluorescent substrate A10070 in DMPG vesicles; assay type: biochemical; details: conditioned media from HT-1080 cells overexpressing endogenous EL, 20 min preincubation at 37° C.
T1 construct: transformed by RAGE technology (Athersys) to overexpress endogenous EL; endogenous in cells; conditioned medium used as the enzyme source
T1 sequence (Q9Y5X9 21-500): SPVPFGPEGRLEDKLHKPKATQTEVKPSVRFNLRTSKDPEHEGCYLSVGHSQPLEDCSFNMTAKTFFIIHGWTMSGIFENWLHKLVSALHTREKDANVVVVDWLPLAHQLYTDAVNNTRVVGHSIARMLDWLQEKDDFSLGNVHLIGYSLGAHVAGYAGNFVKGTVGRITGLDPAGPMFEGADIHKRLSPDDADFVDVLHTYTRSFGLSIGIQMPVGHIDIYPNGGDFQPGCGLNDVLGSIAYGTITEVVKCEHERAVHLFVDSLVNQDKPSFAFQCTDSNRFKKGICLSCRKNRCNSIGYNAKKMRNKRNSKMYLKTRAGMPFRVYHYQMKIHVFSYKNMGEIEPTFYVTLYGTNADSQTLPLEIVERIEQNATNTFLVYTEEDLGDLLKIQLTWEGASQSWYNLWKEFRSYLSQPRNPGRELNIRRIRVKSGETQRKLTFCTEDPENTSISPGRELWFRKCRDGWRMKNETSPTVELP
Protocol: Endothelial lipase activity was measured using a fluorescent substrate, A10070, (Invitrogen, CA) doped into an artificial vesicle containing DMPG (Avanti Polar Lipids) as the excipient. Vesicles were prepared by combining 285 μL of 1 mM DMPG in a 1:1 mixture of MeOH and CHCl3 with 15 μL of 1 mM A10070 in a 1:1 mixture of MeOH and CHCl3. The mixture was dried under nitrogen and resuspended in 150 μL of 50 mM HEPES pH 8.0 buffer containing 100 mM NaCl and 0.2 mM EDTA. The sample was allowed to sit at rt for 15 min and then was sonicated 3×4 mins on ice with a Branson Sonicator using duty cycle 1. This preparation provides vesicles with a mole fraction of 0.05 for the FRET substrate.
The enzymatic assay was measured using white, opaque 96-well half area plates. Each well contained 60 μL of assay buffer (50 mM HEPES pH 8.0, 50 mM NaCl and 1 mM CaCl2) and 2 ul of a DMSO solution containing compound of interest. Conditioned media obtained from HT-1080 cells, which were transformed by RAGE technology (Athersys) to overexpress endogenous EL, was added and the reaction was allowed to incubate for 20 min at 37° C. with gentle agitation. The reaction was started by the addition of 20 μL of a 1:4 dilution of vesicles. The final total reaction volume was 100 μL. The reaction rates were measured on a Gemini plate reader with an excitation wavelength of 488 nm and a emission of 530 nm. Readings were taken every 20 seconds for 10 min with agitation between each reading. The slope of the linear portion of the readout was used to calculate the rate of the reaction.
The exemplified examples disclosed in the present invention were tested in the EL assay described above and found having EL inhibitory activity. A range of EL IC50 values of ≦10 μM (10000 nM) was observed.

SMILES	IC50
C[C@H](CCc1cccc(C(F)(F)F)c1)NC(=O)c1[nH]c(=O)[nH]c(=O)c1N [Example 1, (R)-5-Amino-2,6-dioxo-N-(4-(3-(trifluoromethyl)phenyl)butan-2-yl)-1,2,3,6-tetrahydropyrimidine-4-carboxamide]	80 nM
Nc1c(C(=O)NCCCc2ccc(Cl)c(Cl)c2)[nH]c(=O)[nH]c1=O [Example 2, 5-amino-N-(3-(3,4-dichlorophenyl)propyl)-2,6-dioxo-1,2,3,6-tetrahydropyrimidine-4-carboxamide]	149 nM
C[C@@H](NC(=O)c1[nH]c(=O)[nH]c(=O)c1N)c1ccc2ccccc2c1 [Example 14, (R)-5-amino-N-(1-(naphthalen-2-yl)ethyl)-2,6-dioxo-1,2,3,6-tetrahydropyrimidine-4-carboxamide]	7510 nM
CC(CNC(=O)c1[nH]c(=O)[nH]c(=O)c1N)Oc1ccc(F)cc1 (stereo not drawn) [Example 15, 5-amino-N-(2-(4-fluorophenoxy)propyl)-2,6-dioxo-1,2,3,6-tetrahydropyrimidine-4-carboxamide]	9930 nM
Nc1c(C(=O)NCc2cccc(-c3ccc(F)cc3)c2)[nH]c(=O)[nH]c1=O [Example 25, 5-amino-N-((4′-fluorobiphenyl-3-yl)methyl)-2,6-dioxo-1,2,3,6-tetrahydropyrimidine-4-carboxamide]	4250 nM
Nc1c(C(=O)NCc2cccc(-n3cnc4ccccc43)c2)[nH]c(=O)[nH]c1=O [Example 28, N-(3-(1H-benzo[d]imidazol-1-yl)benzyl)-5-amino-2,6-dioxo-1,2,3,6-tetrahydropyrimidine-4-carboxamide]	2200 nM
Nc1c(C(=O)NC[C@H]2C[C@@H]2c2ccc(F)cc2)[nH]c(=O)[nH]c1=O [Example 29, 5-amino-N-(((1S,2S)-2-(4-fluorophenyl)cyclopropyl)methyl)-2,6-dioxo-1,2,3,6-tetrahydropyrimidine-4-carboxamide]	7400 nM
Nc1c(C(=O)NCc2c[nH]nc2-c2ccccc2)[nH]c(=O)[nH]c1=O [Example 30, 5-amino-2,6-dioxo-N-((3-phenyl-1H-pyrazol-4-yl)methyl)-1,2,3,6-tetrahydropyrimidine-4-carboxamide]	612 nM
Nc1c(C(=O)NCc2ccc(Oc3ccccc3)cc2)[nH]c(=O)[nH]c1=O [Example 32, 5-amino-2,6-dioxo-N-(4-phenoxybenzyl)-1,2,3,6-tetrahydropyrimidine-4-carboxamide]	703 nM
CC(C)(C)OC(=O)N1CCN(c2cccc(CNC(=O)c3[nH]c(=O)[nH]c(=O)c3N)c2)CC1 [Example 33, tert-butyl 4-(3-((5-amino-2,6-dioxo-1,2,3,6-tetrahydro-pyrimidine-4-carboxamido)methyl)phenyl)piperazine-1-carboxylate]	266 nM
Nc1c(C(=O)NCC2CCN(S(=O)(=O)c3ccc(Cl)c(Cl)c3)CC2)[nH]c(=O)[nH]c1=O [Example 37, 5-amino-N-((1-(3,4-dichloro-phenylsulfonyl)piperidin-4-yl)methyl)-2,6-dioxo-1,2,3,6-tetrahydropyrimidine-4-carboxamide]	3170 nM
Nc1c(C(=O)NCC2CCN(C(=O)c3ccccc3)C2)[nH]c(=O)[nH]c1=O (stereo not drawn) [Example 44, 5-amino-N-((1-benzoylpyrrolidin-3-yl)methyl)-2,6-dioxo-1,2,3,6-tetrahydropyrimidine-4-carboxamide]	3070 nM

Further lines, results first:

IC50	SMILES
78 nM	COc1cc(C)c(OC)c2c1CC(CNC(=O)c1[nH]c(=O)[nH]c(=O)c1N)CC2 (stereo not drawn) [Example 45, 5-amino-N-((5,8-dimethoxy-6-methyl-1,2,3,4-tetra-hydronaphthalen-2-yl)methyl)-2,6-dioxo-1,2,3,6-tetrahydropyrimidine-4-carboxamide]
207 nM	Nc1c(C(=O)NCC2Cc3ccccc3C(c3ccccc3)C2)[nH]c(=O)[nH]c1=O (stereo not drawn) [Example 46, 5-amino-2,6-dioxo-N-((4-phenyl-1,2,3,4-tetrahydronaphthalen-2-yl)methyl)-1,2,3,6-tetrahydropyrimidine-4-carboxamide]
2480 nM	Nc1c(C(=O)NCC2CCc3nn(Cc4ccccc4)cc3C2)[nH]c(=O)[nH]c1=O (stereo not drawn) [Example 50, 5-amino-N-((2-benzyl-4,5,6,7-tetrahydro-2H-indazol-5-yl)methyl)-2,6-dioxo-1,2,3,6-tetrahydropyrimidine-4-carboxamide]
11 nM	C[C@H](COc1c(Cl)cccc1Cl)NC(=O)c1[nH]c(=O)[nH]c(=O)c1N [Example 54, (R)-5-amino-N-(1-(2,6-dichloro-phenoxy)propan-2-yl)-2,6-dioxo-1,2,3,6-tetra-hydropyrimidine-4-carboxamide]
223 nM	C[C@H](COc1ccc(Cl)c2c1CCC2)NC(=O)c1[nH]c(=O)[nH]c(=O)c1N [Example 65, (R)-5-amino-N-(1-(7-chloro-2,3-dihydro-1H-inden-4-yloxy)propan-2-yl)-2,6-dioxo-1,2,3,6-tetrahydropyrimidine-4-carboxamide]
1390 nM	C[C@H](COc1ccc(Cl)cc1F)NC(=O)c1[nH]c(=O)[nH]c(=O)c1N [Example 72, (R)-5-amino-N-(1-(4-chloro-2-fluoro-phenoxy)propan-2-yl)-2,6-dioxo-1,2,3,6-tetrahydropyrimidine-4-carboxamide]
2000 nM	Cc1nc2cc(OC[C@@H](C)NC(=O)c3[nH]c(=O)[nH]c(=O)c3N)ccc2s1 [Example 84, (R)-5-amino-N-(1-(2-methyl-benzo[d]thiazol-5-yloxy)propan-2-yl)-2,6-dioxo-1,2,3,6-tetrahydropyrimidine-4-carboxamide]
509 nM	C[C@H](COc1ccc(Cl)cc1C(=O)c1ccccc1)NC(=O)c1[nH]c(=O)[nH]c(=O)c1N [Example 88, (R)-5-amino-N-(1-(2-benzoyl-4-chlorophenoxy)propan-2-yl)-2,6-dioxo-1,2,3,6-tetrahydropyrimidine-4-carboxamide]
559 nM	C[C@H](COc1ccc(S(C)(=O)=O)cc1)NC(=O)c1[nH]c(=O)[nH]c(=O)c1N [Example 103, (R)-5-amino-N-(1-(4-(methylsulfonyl)phenoxy)pro-pan-2-yl)-2,6-dioxo-1,2,3,6-tetrahydropyrimidine-4-carboxamide]
4990 nM	C[C@H](COc1ccccc1-c1nnco1)NC(=O)c1[nH]c(=O)[nH]c(=O)c1N [Example 115, (R)-N-(1-(2-(1,3,4-oxadiazol-2-yl)phenoxy)propan-2-yl)-5-amino-2,6-dioxo-1,2,3,6-tetra-hydropyrimidine-4-carboxamide]
5400 nM	C[C@H](COc1ccc2c(c1)NC(=O)CC2)NC(=O)c1[nH]c(=O)[nH]c(=O)c1N [Example 120, (R)-5-amino-2,6-dioxo-N-(1-(2-oxo-1,2,3,4-tetrahydroquinolin-7-yloxy)propan-2-yl)-1,2,3,6-tetrahydropyrimidine-4-carboxamide]
20 nM	C[C@@H](NC(=O)c1[nH]c(=O)[nH]c(=O)c1N)c1cccc(-c2ccn(Cc3ccccc3)n2)c1 [Example 136, (R)-5-amino-N-(1-(3-(1-benzyl-1H-pyrazol-3-yl)phenyl)ethyl)-2,6-dioxo-1,2,3,6-tetrahydro-pyrimidine-4-carboxamide]
883 nM	C[C@@H](NC(=O)c1[nH]c(=O)[nH]c(=O)c1N)c1cccc(-c2cnn(Cc3cccc(C(N)=O)c3)c2)c1 [Example 141, (R)-5-amino-N-(1-(3-(1-(3-carbamoylbenzyl)-1H-pyrazol-4-yl)phenyl)ethyl)-2,6-dioxo-1,2,3,6-tetrahydro-pyrimidine-4-carboxamide]
6960 nM	C[C@@H](NC(=O)c1[nH]c(=O)[nH]c(=O)c1N)c1cc(-c2cnn(Cc3ccccc3)c2)ccc1O [Example 143, (R)-5-amino-N-(1-(5-(1-benzyl-1H-pyrazol-4-yl)-2-hydroxyphenyl)ethyl)-2,6-dioxo-1,2,3,6-tetrahydro-pyrimidine-4-carboxamide]
422 nM	C[C@@H](NC(=O)c1[nH]c(=O)[nH]c(=O)c1N)c1cccc(-c2cnn(CCc3c[nH]c4ccccc34)c2)c1 [Example 155, (R)-N-(1-(3-(1-(2-(1H-indol-3-yl)ethyl)-1H-pyrazol-4-yl)phenyl)ethyl)-5-amino-2,6-dioxo-1,2,3,6-tetrahydro-pyrimidine-4-carboxamide]
